Data as given in the supplement of paper PMC10331698.
± gives the standard deviation of the averaged measurements.

Columns and labels:
Assay in all cases: level (log10 ratio to DMSO vehicle control); higher = higher biomarker level / cell amount than vehicle control
[1] = compound: CCN(CCO)S(=O)(=O)C(F)(F)C(F)(F)C(F)(F)C(F)(F)C(F)(F)C(F)(F)C(F)(F)C(F)(F)F [N-Ethyl-N-(2-hydroxyethyl)perfluorooctanesulfonamide]; conditions: in DMSO
Method: (§1)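 BioMAP Diversity Plus panel of 12 human primary cell co-culture systems (3C, 4H, LPS, SAg, BT, BF4T, BE3C, CASM3C, HDF3CGF, KF3CT, MyoF, Mphg). Compounds were added 1 h before stimulation and left for 24 h (MyoF 48 h; BT 72 h for soluble read-outs or 6 d for IgG). Biomarkers were read by ELISA, cytotoxicity by SRB, PBMC viability and proliferation by Alamar Blue. Each well value was divided by the mean of 8 DMSO control wells on the same plate and log10 transformed; duplicate blinded samples were tested at 4 concentrations.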

[2] = compound: FC(F)(F)C(F)(C(F)(F)F)C(F)(F)C(F)(F)CC1CO1 [3-(Perfluoro-3-methylbutyl)-1,2-propenoxide]; conditions: in DMSO
Method: as §1

[3] = compound: FC(F)(F)C(F)(F)C(F)(F)C(F)(F)C(F)(F)CCI [1-Iodo-1H,1H,2H,2H-perfluoroheptane]; conditions: in DMSO
Method: as §1

[4] = compound: NCC(F)(F)C(F)(F)C(F)(F)C(F)(F)C(F)(F)C(F)(F)C(F)(F)F [1H,1H-Perfluorooctylamine]; conditions: in DMSO
Method: as §1

Perfluorobutanoic acid = compound: O=C(O)C(F)(F)C(F)(F)C(F)(F)F [Perfluorobutanoic acid]; conditions: in DMSO
Method: as §1

[5] = compound: O=C(O)C(F)(F)OC(F)(F)C(F)(F)OC(F)(F)F [Perfluoro-3,6-dioxaheptanoic acid]; conditions: in DMSO
Method: as §1

[6] = compound: OCCC(F)(F)C(F)(F)C(F)(F)C(F)(F)C(F)(F)C(F)(F)F [6:2 Fluorotelomer alcohol]; conditions: in DMSO
Method: as §1

[7] = compound: OCCCC(F)(F)C(F)(F)C(F)(F)C(F)(F)C(F)(F)C(F)(F)C(F)(F)F [7:3 Fluorotelomer alcohol]; conditions: 6700 nM; in DMSO
Method: as §1

Test System	level (log10) ([1]; 6700 nM)	level (log10) ([1]; 20000 nM)	level (log10) ([2]; 6700 nM)	level (log10) ([2]; 20000 nM)	level (log10) ([3]; 6700 nM)	level (log10) ([3]; 20000 nM)	level (log10) ([3]; 60000 nM)	level (log10) ([4]; 6700 nM)	level (log10) ([4]; 20000 nM)	level (log10) ([4]; 60000 nM)	level (log10) (Perfluorobutanoic acid; 6700 nM)	level (log10) (Perfluorobutanoic acid; 20000 nM)	level (log10) (Perfluorobutanoic acid; 60000 nM)	level (log10) ([5]; 6700 nM)	level (log10) ([5]; 20000 nM)	level (log10) ([5]; 60000 nM)	level (log10) ([6]; 6700 nM)	level (log10) ([6]; 20000 nM)	level (log10) [7]
HDF3CGF:TIMP-1	0.005 ± 0.081	-0.0605 ± 0.074	-0.012 ± 0.035	-0.035 ± 0.033	-0.001 ± 0.0042	0.0055 ± 0.005	-0.024 ± 0.0085	-0.0265 ± 0.077	-0.0335 ± 0.036	-0.0405 ± 0.036	-0.0165 ± 0.00071	-0.0085 ± 0.033	0.0085 ± 0.013	-0.0265 ± 0.029	-0.012 ± 0.052	-0.0655 ± 0.074	0.0005 ± 0.018	0.0095 ± 0.028	-0.012
HDF3CGF:TIMP-2	0.136 ± 0.0057	0.108 ± 0.0071	-0.043 ± 0.081	-0.0475 ± 0.1	0.0155 ± 0.023	0.004 ± 0.033	-0.019 ± 0.035	-0.03 ± 0.059	-0.013 ± 0.052	-0.0245 ± 0.016	-0.0015 ± 0.0035	-0.0055 ± 0.015	-0.0115 ± 0.036	-0.018 ± 0.062	0.003 ± 0.047	0.008 ± 0.045	-0.007 ± 0.025	0.004 ± 0.021	0.0005 ± 0.013
KF3CT:CCL2/MCP-1	-0.0205 ± 0.0078	-0.102 ± 0.019	-0.004 ± 0.03	0.022 ± 0.04	0.0005 ± 0.015	-0.034 ± 0.028	-0.0465 ± 0.064	-0.0055 ± 0.043	-0.021 ± 0.013	0.0045 ± 0.0078	-0.028 ± 0.0099	-0.0325 ± 0.0035	0.0205 ± 0.023	-0.0175 ± 0.016	-0.0345 ± 0.0078	0.0395 ± 0.028	-0.015 ± 0.038	-0.016 ± 0.041	-0.0105 ± 0.005
KF3CT:CD54/ICAM-1	0.0415 ± 0.0078	0.002 ± 0.0028	0.0055 ± 0.011	-0.0105 ± 0.0064	0.0015 ± 0.019	-0.0045 ± 0.00071	-0.0165 ± 0.0021	0	0.0015 ± 0.005	0.011 ± 0.0057	-0.005 ± 0.0028	0.008 ± 0.0071	0.016 ± 0.016	-0.0055 ± 0.0035	-0.0115 ± 0.00071	-0.02 ± 0.011	0.011 ± 0.0057	0.0155 ± 0.0021	-0.022 ± 0.0071
KF3CT:CXCL8/IL-8	-0.0975 ± 0.012	-0.0935 ± 0.0064	-0.0155 ± 0.0078	0.0035 ± 0.013	0.007 ± 0.035	0.028 ± 0.02	0.06 ± 0.011	-0.0205 ± 0.035	-0.0295 ± 0.029	-0.014 ± 0.0085	0.012 ± 0.013	-0.009 ± 0.0085	0.0045 ± 0.013	-0.0075 ± 0.015	0.005 ± 0.011	0.0515 ± 0.033	0 ± 0.0057	-0.0165 ± 0.005	0.0035 ± 0.043
KF3CT:CXCL9/MIG	0.004 ± 0.0085	-0.032 ± 0.013	0.005 ± 0.014	0.001 ± 0.013	0.003 ± 0.0014	0.003	0.006 ± 0.0014	0 ± 0.0057	0.0005 ± 0.018	-0.005 ± 0.0099	0 ± 0.0099	0.0015 ± 0.0021	0.0055 ± 0.022	-0.022 ± 0.0071	0.0065 ± 0.013	-0.0035 ± 0.019	0.0045 ± 0.0035	0.009	0.0015 ± 0.005
KF3CT:CXCL10/IP-10	-0.0395 ± 0.022	-0.107 ± 0.015	-0.009 ± 0.016	-0.026 ± 0.014	0.0035 ± 0.00071	0.001 ± 0.013	-0.0185 ± 0.00071	-0.0045 ± 0.00071	-0.0075 ± 0.011	-0.003	0.008 ± 0.0042	-0.005 ± 0.0014	-0.002 ± 0.0028	-0.0085 ± 0.00071	-0.0055 ± 0.005	0.003 ± 0.013	0.0105 ± 0.0092	0.006 ± 0.014	0.01 ± 0.0042
KF3CT:IL-1alpha	0.006 ± 0.028	-0.111	-0.0105 ± 0.013	-0.0065 ± 0.015	0.01 ± 0.016	0.009 ± 0.0057	-0.0295 ± 0.016	-0.0225 ± 0.0035	-0.001 ± 0.013	-0.0095 ± 0.0021	-0.0085 ± 0.012	0.006 ± 0.062	0.019 ± 0.058	-0.011 ± 0.025	0.032 ± 0.03	-0.1 ± 0.067	0.003 ± 0.041	-0.0085 ± 0.011	-0.0135 ± 0.011
KF3CT:MMP-9	0.01 ± 0.0085	-0.0875 ± 0.015	-0.016 ± 0.03	-0.0265 ± 0.039	-0.017 ± 0.011	-0.0265 ± 0.025	-0.029 ± 0.021	0.0085 ± 0.0092	0.0025 ± 0.0035	0.0065 ± 0.005	-0.01 ± 0.021	-0.0185 ± 0.019	0.0005 ± 0.013	-0.0195 ± 0.033	-0.0205 ± 0.05	-0.028 ± 0.034	-0.007 ± 0.035	-0.0045 ± 0.015	-0.019 ± 0.018
KF3CT:PAI-I	-0.0995 ± 0.011	-0.193 ± 0.014	0 ± 0.035	-0.011 ± 0.037	-0.007 ± 0.02	-0.014 ± 0.0071	-0.0245 ± 0.028	-0.0025 ± 0.005	-0.001 ± 0.0014	0.003 ± 0.014	-0.0055 ± 0.0078	-0.019 ± 0.0014	0	0.0035 ± 0.096	0.009 ± 0.0085	0.008 ± 0.072	-0.0155 ± 0.0035	-0.0035 ± 0.011	-0.017 ± 0.025
KF3CT:SRB	-0.015	-0.0305 ± 0.0092	-0.004 ± 0.0042	-0.0085 ± 0.0064	0.002 ± 0.0071	-0.0045 ± 0.00071	-0.0065 ± 0.0078	-0.01 ± 0.011	-0.0065 ± 0.013	0.0065 ± 0.035	-0.008 ± 0.0042	-0.0005 ± 0.00071	0.006 ± 0.018	0.0035 ± 0.0021	-0.0015 ± 0.0021	-0.0045 ± 0.005	-0.0085 ± 0.0078	-0.0225 ± 0.005	-0.002 ± 0.0071
KF3CT:TIMP-2	0.0855 ± 0.037	0.04 ± 0.0028	-0.003 ± 0.0042	0.0015 ± 0.042	-0.012 ± 0.035	-0.03 ± 0.028	-0.0245 ± 0.03	-0.013	-0.01 ± 0.018	-0.017 ± 0.013	-0.005 ± 0.014	-0.009 ± 0.0071	-0.002 ± 0.0014	0.024 ± 0.069	-0.0365 ± 0.13	-0.01 ± 0.12	0.0005 ± 0.016	0.0015 ± 0.015	-0.0005 ± 0.028
KF3CT:uPA	0.022 ± 0.0028	-0.0225 ± 0.0021	-0.0045 ± 0.0021	-0.021 ± 0.017	-0.001 ± 0.034	0.0145 ± 0.022	0.0125 ± 0.00071	-0.017 ± 0.0028	-0.0135 ± 0.0078	-0.0225 ± 0.019	-0.017 ± 0.017	-0.018 ± 0.0099	0.005 ± 0.02	-0.0175 ± 0.019	0.023 ± 0.033	0.017 ± 0.05	-0.015 ± 0.023	-0.0055 ± 0.015	-0.0075 ± 0.0064
MyoF:CD106/VCAM-1	-0.0675 ± 0.0064	-0.534 ± 0.053	0.008 ± 0.011	-0.0305 ± 0.019	0.001 ± 0.0042	-0.026 ± 0.0028	-0.0205 ± 0.0064	-0.007 ± 0.0085	-0.0295 ± 0.011	0.002 ± 0.013	-0.013 ± 0.0028	-0.007 ± 0.0014	-0.0075 ± 0.015	0.001 ± 0.048	-0.0175 ± 0.028	-0.021 ± 0.051	0.016 ± 0.0071	0.0045 ± 0.019	-0.013 ± 0.011
MyoF:CXCL8/IL-8	-0.193 ± 0.011	-0.12 ± 0.022	0.0045 ± 0.00071	0.0185 ± 0.0021	-0.0015 ± 0.019	0.028 ± 0.018	0.043 ± 0.038	0.0025 ± 0.021	-0.0095 ± 0.0035	-0.002 ± 0.023	-0.03 ± 0.1	-0.0355 ± 0.073	0.025 ± 0.024	-0.0255 ± 0.08	-0.0035 ± 0.03	0.0435 ± 0.019	0.0185 ± 0.032	-0.0045 ± 0.0021	0.017 ± 0.052
